Data reported in article PMC6941124 (International Journal of Molecular Sciences, 2019).
Positions count from the first letter of the chain named. pEC50, pIC50: −log10 of the molar value.

What was measured:
[1] = biological target: CK1δ wild type (GST-CK1δ) (Homo sapiens, UniProt P48730); experiment: in vitro kinase assay, GST-CK1δ wild type; assay type: biochemical; conditions: for Kinase activity of CK1δ in presence of inhibitor: 10 µM inhibitor, initial screening; for pIC50: dilution series 0.005−10 µM, mean ± standard error, triplicate
Experimental: (§1) Overexpression and purification of GST-CK1δ fusion proteins, either wild type or mutant, were performed as described previously.
(§2) Each kinase assay reaction was performed in kinase buffer (25 mM Tris-HCl (pH 7.5), 10 μM ATP, 10 mM MgCl2, 100 μM EDTA) in presence of purified GST-CK1δ kinase as source of enzyme (either wild type or mutant), an assay-specific substrate (α-casein, GST-p53^1−64, or GST-β-catenin^1−181), and radiolabeled ATP (2 μCi [γ-^32P]-ATP). For performing Michaelis–Menten analysis increasing substrate concentrations were used (α-casein: 0.39−25 μM; GST-p53^1−64: 0.09−1.87 μM; GST-β-catenin^1−181: 0.07−1.32 μM). For biological evaluation of small molecule inhibitors (SMIs), each inhibitor compound was either tested at 10 μM concentration for initial screening or by using a dilution series (0.005−10 µM) for determination of IC50 values. DMSO was used as control. Reactions were incubated for 30 min at 30 °C and reactions were stopped using 5x SDS-loading buffer (250 mM Tris-HCl [pH 6.8], 25% (v/v) β-mercaptoethanol (MSH), 50% (v/v) glycerol, 10% (w/v) SDS, 0.5% (w/v) bromphenol blue). Subsequently, samples were separated by SDS-PAGE using 12.5% acrylamide gels, stained with Coomassie, and phosphorylated substrates were visualized on X-ray film. Incorporation of radiolabeled phosphate was quantified by scintillation counting of Coomassie-stained substrate bands. Defined dilutions of the reaction master mix were counted as well in order to convert results obtained as counts per minute (CPM) to units of transferred phosphate in pmol/min. Michaelis–Menten analysis was performed using GraphPad Prism 6 (GraphPad Software, San Diego, CA, USA).

CK1δ R127Q = biological target: T1, CK1δ R127Q (Homo sapiens, UniProt P48730, R127Q); experiment: in vitro kinase assay, CK1δ mutant R127Q; assay type: biochemical; conditions: 10 µM inhibitor, Figure 5b
T1 sequence (P48730 1-415 R127Q): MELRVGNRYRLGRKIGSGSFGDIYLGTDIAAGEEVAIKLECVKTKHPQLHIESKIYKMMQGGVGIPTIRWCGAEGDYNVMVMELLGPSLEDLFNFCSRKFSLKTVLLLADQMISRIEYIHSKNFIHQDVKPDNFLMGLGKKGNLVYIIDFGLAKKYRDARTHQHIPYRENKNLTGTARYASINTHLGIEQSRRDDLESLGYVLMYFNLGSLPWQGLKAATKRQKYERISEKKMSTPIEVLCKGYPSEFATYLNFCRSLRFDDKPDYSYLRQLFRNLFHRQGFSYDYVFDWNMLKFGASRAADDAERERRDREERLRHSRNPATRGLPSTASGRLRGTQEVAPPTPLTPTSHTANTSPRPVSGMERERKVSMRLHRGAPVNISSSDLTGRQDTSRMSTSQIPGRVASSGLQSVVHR
Experimental: as §1, §2

CK1δ T67S = biological target: T2, CK1δ T67S (Homo sapiens, UniProt P48730, T67S); experiment: in vitro kinase assay, CK1δ mutant T67S; assay type: biochemical; conditions: 10 µM inhibitor, Figure 5a
T2 sequence (P48730 1-415 T67S): T1 sequence (P48730 1-415 R127Q) with T67S, Q127R
Experimental: as §1, §2

CK1α = CK1α (Homo sapiens, UniProt P48729); experiment: in vitro kinase assay, CK1α; assay type: biochemical; conditions: 10 µM inhibitor, initial screening
CK1γ = experiment: in vitro kinase assay, CK1γ; assay type: biochemical; conditions: 10 µM inhibitor, initial screening
CK1ε = CK1ε (Homo sapiens, UniProt P49674); experiment: in vitro kinase assay, CK1ε; assay type: biochemical; conditions: 10 µM inhibitor, initial screening
parental HeLa cells = experiment: MTT viability assay, parental HeLa cells; assay type: cell-based; conditions: 25 μM, 48 h
Experimental: (§3) Parental HeLa cells, as well as HeLa CSNK1D knock-out cells (CK1δ^−/−) (generated by CRISP/Cas9 technology and provided by EDIGENE, Beijing, China), were cultured in Dulbecco’s Modified Eagle medium (DMEM). HCT-116 and HT-29 colon cancer cells were cultured in McCoy’s 5A medium whereas SW480 and SW620 colon cancer cells were cultured in Leibovitz’s L-15 medium. All media were supplemented with 10% (v/v) fetal bovine serum (FBS), 100 units/mL penicillin, and 100 µg/mL streptomycin. DMEM-based medium for the culture of HeLa CSNK1D knock-out cells was additionally supplemented with 1 μg/mL puromycin. Cell cultures were maintained at 37 °C in a humidified atmosphere containing 5% CO2. Cells were transfected using Effectene transfection reagent (Qiagen, Hilden, Germany) according to the manufacturer’s instructions. […]
(§4) For performing MTT viability assays, cells were seeded in a 96-well plate (5 × 10^4 cells/well for HeLa cells (parental, CK1δ^−/−, or CK1δ^−/− cells stably transfected with wild type or mutant CK1δ), HCT-116, and HT-29 cells or 7.5 × 10^4 cell/well for SW480 and SW620 cells). […] Absorbance was measured at 570 nm with TriStar^2 LB942 Microplate Reader (Berthold Technologies, Bad Wildbad, Germany) and data analysis was performed using GraphPad Prism 6 (GraphPad Software, San Diego, CA, USA).

HeLa CK1δ−/− cells = experiment: MTT viability assay, HeLa CK1δ−/− cells; assay type: cell-based; conditions: 48 h; for Effects on cell viability of CK1δ−/− cells compared to parental and/or CK1δ+/+ cells: 25 μM
Experimental: (§5) Parental HeLa cells, as well as HeLa CSNK1D knock-out cells (CK1δ^−/−) (generated by CRISP/Cas9 technology and provided by EDIGENE, Beijing, China), were cultured in Dulbecco’s Modified Eagle medium (DMEM). HCT-116 and HT-29 colon cancer cells were cultured in McCoy’s 5A medium whereas SW480 and SW620 colon cancer cells were cultured in Leibovitz’s L-15 medium. All media were supplemented with 10% (v/v) fetal bovine serum (FBS), 100 units/mL penicillin, and 100 µg/mL streptomycin. DMEM-based medium for the culture of HeLa CSNK1D knock-out cells was additionally supplemented with 1 μg/mL puromycin. Cell cultures were maintained at 37 °C in a humidified atmosphere containing 5% CO2. Cells were transfected using Effectene transfection reagent (Qiagen, Hilden, Germany) according to the manufacturer’s instructions. For selection of stably transfected clones, transfected cells were grown in selective medium, containing 0.6 mg/mL of G-418 (Calbiochem-Merck Millipore, Darmstadt, Germany).
(§6) For performing MTT viability assays, cells were seeded in a 96-well plate (5 × 10^4 cells/well for HeLa cells (parental, CK1δ^−/−, or CK1δ^−/− cells stably transfected with wild type or mutant CK1δ), HCT-116, and HT-29 cells or 7.5 × 10^4 cell/well for SW480 and SW620 cells). After 24 h, old medium was replaced with fresh medium containing either the small molecule of interest or DMSO as control. After 48 h of treatment, 10 μL MTT (5 mg/mL) was added and incubated at 37 °C for 4 h. The medium was then gently removed and 100 μL of acidic isopropanol was added (90% (v/v) isopropanol, 10% (v/v) 1 N HCl). Cell culture plates were then shaken for 30 min at room temperature. Absorbance was measured at 570 nm with TriStar^2 LB942 Microplate Reader (Berthold Technologies, Bad Wildbad, Germany) and data analysis was performed using GraphPad Prism 6 (GraphPad Software, San Diego, CA, USA).

CK1δ R168H = biological target: T3, CK1δ R168H (Homo sapiens, UniProt P48730, R168H); experiment: in vitro kinase assay, CK1δ mutant R168H; assay type: biochemical; conditions: 10 µM inhibitor, among 16-19, Figure 5c
T3 sequence (P48730 1-415 R168H): T1 sequence (P48730 1-415 R127Q) with Q127R, R168H
Experimental: as §1, §2

[2] = tested on: HeLa CK1δ+/+ cells (HeLa CK1δ−/− stably transfected with CK1δ); experiment: MTT viability assay, HeLa CK1δ+/+ cells; assay type: cell-based; conditions: 48 h; for Cell viability of CK1δ-expressing cells (HeLa parental or CK1δ+/+) compared to CK1δ-deficient cells (HeLa CK1δ−/−): 25 μM
Experimental: as §5, §6

[3] = tested on: HeLa CK1δ−/− cells expressing CK1δ T67S; experiment: MTT viability assay, HeLa CK1δ−/− cells expressing CK1δ T67S; assay type: cell-based; conditions: 10 μM, 48 h
Experimental: as §3, §4

[4] = tested on: HeLa CK1δ−/− cells expressing CK1δ R127Q; experiment: MTT viability assay, HeLa CK1δ−/− cells expressing CK1δ R127Q; assay type: cell-based; conditions: 10 μM, 48 h, difference not statistically significant
Experimental: as §3, §4

[5] = tested on: HeLa CK1δ−/− cells expressing CK1δ R168H; experiment: MTT viability assay, HeLa CK1δ−/− cells expressing CK1δ R168H; assay type: cell-based; conditions: 10 μM, 48 h
Experimental: as §3, §4

HT-29 colon cancer cells = experiment: MTT viability assay, HT-29; assay type: cell-based; conditions: 10 µM, 48 h, initial screening (Figure 10a)
Experimental: as §5, §6

SW480 colon cancer cells = experiment: MTT viability assay, SW480; assay type: cell-based, human; conditions: 10 µM, 48 h, initial screening (Figure 10a)
Experimental: as §5, §6

SW620 colon cancer cells = experiment: MTT viability assay, SW620; assay type: cell-based, human; conditions: 48 h
Experimental: as §5, §6

Sequence of CK1ε (P49674 whole entry): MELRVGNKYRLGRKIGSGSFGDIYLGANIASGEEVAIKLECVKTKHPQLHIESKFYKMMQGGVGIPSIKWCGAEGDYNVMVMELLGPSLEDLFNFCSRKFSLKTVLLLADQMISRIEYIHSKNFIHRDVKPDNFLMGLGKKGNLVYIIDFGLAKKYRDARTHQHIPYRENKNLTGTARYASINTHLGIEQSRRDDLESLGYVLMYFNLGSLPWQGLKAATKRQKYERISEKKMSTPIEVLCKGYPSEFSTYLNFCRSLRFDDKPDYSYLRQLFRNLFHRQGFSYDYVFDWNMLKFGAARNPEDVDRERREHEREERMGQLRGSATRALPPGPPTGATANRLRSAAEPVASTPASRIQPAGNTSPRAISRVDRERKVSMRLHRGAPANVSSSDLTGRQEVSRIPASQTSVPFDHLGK
Sequence of CK1δ wild type (GST-CK1δ) (P48730 whole entry, the tested form may be a part): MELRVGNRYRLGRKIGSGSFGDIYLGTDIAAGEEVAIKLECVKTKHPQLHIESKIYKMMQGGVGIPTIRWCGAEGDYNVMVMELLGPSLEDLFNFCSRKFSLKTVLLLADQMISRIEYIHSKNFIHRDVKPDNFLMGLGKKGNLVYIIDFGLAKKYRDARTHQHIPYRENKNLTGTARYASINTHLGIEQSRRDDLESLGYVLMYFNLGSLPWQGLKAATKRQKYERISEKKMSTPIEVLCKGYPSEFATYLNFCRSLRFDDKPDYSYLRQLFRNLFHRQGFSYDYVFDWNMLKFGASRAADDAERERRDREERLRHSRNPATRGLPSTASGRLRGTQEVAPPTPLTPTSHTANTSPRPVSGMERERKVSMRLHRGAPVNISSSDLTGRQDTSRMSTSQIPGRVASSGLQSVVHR
Sequence of CK1α (P48729 whole entry): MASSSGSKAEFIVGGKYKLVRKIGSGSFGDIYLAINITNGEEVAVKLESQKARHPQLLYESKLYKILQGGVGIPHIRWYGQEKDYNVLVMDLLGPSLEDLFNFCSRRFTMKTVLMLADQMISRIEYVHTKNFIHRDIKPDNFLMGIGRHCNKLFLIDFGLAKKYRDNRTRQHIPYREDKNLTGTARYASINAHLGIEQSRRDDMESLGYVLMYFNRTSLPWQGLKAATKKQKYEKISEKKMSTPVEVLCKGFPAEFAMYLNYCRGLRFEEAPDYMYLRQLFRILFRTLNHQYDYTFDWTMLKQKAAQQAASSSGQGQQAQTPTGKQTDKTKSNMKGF

Structure (SMILES)	Kinase activity of CK1δ in presence of inhibitor [1]	pIC50 [1]	Inhibition of CK1δ T67S compared to wild type CK1δ (CK1δ T67S)	Kinase activity of CK1α in presence of inhibitor (CK1α)	Kinase activity of CK1γ in presence of inhibitor (CK1γ)	Kinase activity of CK1ε in presence of inhibitor (CK1ε)	Effects on cell viability of parental HeLa cells, compared with compounds 18 and 19 (parental HeLa cells)	Effects on cell viability of CK1δ−/− cells compared to parental and/or CK1δ+/+ cells (HeLa CK1δ−/− cells)	Cell viability of CK1δ-expressing cells (HeLa parental or CK1δ+/+) compared to CK1δ-deficient cells (HeLa CK1δ−/−) [2]	other results
O=C(CSc1nccc(=O)n1-c1ccccc1)Nc1nc2ccc(C(F)(F)F)cc2s1 [Compound 16, 2-((3-Phenyl-4-oxo-3,4-dihydropyrimidin-2-yl)thio)-N-(6-(trifluoromethyl)benzo-[d]thiazol-2-yl)acetamide]	strongly inhibited	5.70	slightly stronger	not affected	not affected	strongly inhibited	less pronounced	not reduced		Inhibition of CK1δ R127Q kinase activity compared to wild type CK1δ (CK1δ R127Q): significantly stronger inhibited
O=C(CSc1nccc(=O)n1Cc1ccc(C(F)(F)F)cc1)Nc1nc2ccc(C(F)(F)F)cc2s1 [Compound 21, 2-((3-(4-Trifluoromethylbenzyl)-4-oxo-3,4-dihydropyrimidin-2-yl)thio)-N-(6-(trifluoromethyl)benzo[d]thiazol-2-yl)acetamide]	strongly inhibited	6.92			not affected	strongly inhibited				Reduction of CK1α activity (CK1α): at least 50%; Reduction of cell viability, HT-29 (HT-29 colon cancer cells): minor changes; Reduction of cell viability, SW480 (SW480 colon cancer cells): minor changes; Reduction of cell viability, SW620 (SW620 colon cancer cells; 10 µM, initial screening (Figure 10a)): ~50%; Dose-dependent effects on SW620 cell viability (SW620 colon cancer cells; 0.625 to 20 µM, MTT (Figure S2)): only visible at the highest concentrations tested

Further lines, with some results ahead:

Kinase activity of CK1δ in presence of inhibitor [1]	pIC50 [1]	Inhibition of CK1δ T67S compared to wild type CK1δ (CK1δ T67S)	Kinase activity of CK1α in presence of inhibitor (CK1α)	Kinase activity of CK1γ in presence of inhibitor (CK1γ)	Kinase activity of CK1ε in presence of inhibitor (CK1ε)	Structure (SMILES)	Effects on cell viability of parental HeLa cells, compared with compounds 18 and 19 (parental HeLa cells)	Effects on cell viability of CK1δ−/− cells compared to parental and/or CK1δ+/+ cells (HeLa CK1δ−/− cells)	Cell viability of CK1δ-expressing cells (HeLa parental or CK1δ+/+) compared to CK1δ-deficient cells (HeLa CK1δ−/−) [2]	other results
strongly inhibited		slightly stronger	not affected	not affected	strongly inhibited	COc1ccc(OC)c(-n2c(SCC(=O)Nc3nc4ccc(C(F)(F)F)cc4s3)nccc2=O)c1 [Compound 17, 2-((3-(2,5-Dimethoxyphenyl)-4-oxo-3,4-dihydropyrimidin-2-yl)thio)-N-(6-(trifluoromethyl)benzo[d]thiazol-2-yl)acetamide]	less pronounced	not reduced		
strongly inhibited	5.77	slightly stronger	not affected	not affected	strongly inhibited	COc1ccc(-n2c(SCC(=O)Nc3nc4ccc(C(F)(F)F)cc4s3)nccc2=O)c(OC)c1 [Compound 18, 2-((3-(2,4-Dimethoxyphenyl)-4-oxo-3,4-dihydropyrimidin-2-yl)thio)-N-(6-(trifluoromethyl)benzo[d]thiazol-2-yl)acetamide]			more reduced	Effects on CK1δ R168H activity (CK1δ R168H): strongest effects; pEC50 (HeLa CK1δ−/− cells; CK1, 0.313-70 µM, read-out: EC50 (CK1δ−/−), cell viability): 4.73; pEC50 ([2]; CK1, 0.313-70 µM, read-out: EC50 (CK1δ+/+), cell viability): 5.13; Effects on cell viability of CK1δ T67S-expressing HeLa cells vs CK1δ WT-expressing cells [3]: stronger effects; Effects on cell viability of CK1δ R127Q-expressing HeLa cells vs CK1δ WT-expressing cells [4]: stronger effects; Effects on cell viability of CK1δ R168H-expressing HeLa cells vs CK1δ WT-expressing cells [5]: stronger effects
strongly inhibited			not affected	not affected	strongly inhibited	COc1cc(OC)cc(-n2c(SCC(=O)Nc3nc4ccc(C(F)(F)F)cc4s3)nccc2=O)c1 [Compound 19, 2-((3-(3,5-Dimethoxyphenyl)-4-oxo-3,4-dihydropyrimidin-2-yl)thio)-N-(6-(trifluoromethyl)benzo[d]thiazol-2-yl)acetamide]			more reduced	
